For one series, the system named is mouse T lymphocytes. Description: T-cell proliferation assay (ionomycin plus PMA induced T-cell stimulation, tritiated thymidine uptake). Type of series: cell-based, C57B1/6 mice. As to the method: The principle of this assay is to measure the proliferation of mouse T lymphocytes stimulated with the combination of ionomycin plus PMA. […] Cells were pelleted by centrifugation at 1500 rpm for 8 minutes. Contaminating red cells were removed by treating the pellet with ammonium chloride lysing buffer (GIBCO) for 2 minutes at 4°C. Cold medium was added and cells were again centrifuged at 1500 rpm for 8 minutes. T lymphocytes were then isolated by separation of the cell suspension on nylon wool columns as follows: Nylon wool columns were prepared by packing approximately 4 grams of washed and dried nylon wool into 20 ml plastic syringes. The columns were sterilized by autoclaving at 250°F for 30 minutes. Nylon wool columns were wetted with warm (37°C) culture medium and rinsed with the same medium. Washed spleen cells resuspended in warm medium were slowly applied to the nylon wool. The columns were then incubated in an upright position at 37°C for 1 hour. Non-adherent T lymphocytes were eluted from the columns with warm culture medium and the cell suspensions were spun as above. […] The cell suspension was immediately distributed into 96 well flat-bottom microculture plates (Costar) at 200 μl/well. […] The proliferation of T lymphocytes was assessed by measurement of tritiated thymidine incorporation. After 44 hours of culturing, the cells were pulse-labelled with 2 μCi/well of tritiated thymidine (NEN, Cambridge, MA). After another 4 hours of incubation, cultures were harvested on glass fiber filters using a multiple sample harvester. Radioactivity of filter discs corresponding to individual wells was measured by standard liquid scintillation counting methods (Betacounter). […]

Series [1] can be described thus: Physical characteristics of the fermentation product. Type of series: physicochemical. The following applies: qualitative, solvent methanol. The text has this:
White amorphous powder • 2. […] Molecular weight of 763, as determined by electron impact mass spectroscopy and is consistent with the assigned molecular structure in Figure 1.

Where “and” joins values, the source holds several entries; their conditions need not be identical. Identical values can stand only once. Like-named read-outs stand apart in the source and are kept apart here.

For the compound `C=CC[C@@H]1/C=C(\C)C[C@H](C)C[C@H](OC)[C@H]2O[C@@](O)(C(=O)C(=O)N3CCCC[C@H]3C(=O)O[C@H](/C(C)=C/[C@@H]3CC[C@@H](O)[C@H](OC)C3)[C@H](C)[C@@H](O)CC1=O)[C@H](C)C[C@@H]2OC` [L-679,934, reference compound], the inhibition (commonly the drop in the measured response relative to a control, in per cent) at 0.001 µg/mL with mouse T lymphocytes (Mus musculus, T-lymphocyte, Table 1, L-679,934 1 ng/ml alone (0 ng/ml L-686,292)) was 99%; in the series with mouse T lymphocytes (Mus musculus, T-lymphocyte, Table 2, L-679,934 (1 ng/ml) alone (0 ng/ml L-686,292)), 97.1%. For the same compound, in the series with mouse T lymphocytes (Mus musculus, T-lymphocyte, read-out: IC₅₀ for L-679,934-mediated inhibition), the IC50 is 0.00032 µg/mL and 0.4 nM.
As for `CC[C@@H]1/C=C(\C)C[C@H](C)C[C@H](O)[C@H]2O[C@@](O)(C(=O)C(=O)N3CCCC[C@H]3C(=O)O[C@H](/C(C)=C/[C@@H]3CC[C@@H](O)[C@H](O)C3)[C@H](C)[C@@H](O)CC1=O)[C@H](C)C[C@@H]2OC` [L-686,292], in the series with mouse T lymphocytes (Mus musculus, T-lymphocyte, 48 h, Table 1, L-686,292 only, 31 ng/ml, harvest at 48 hours), the inhibition at 0.031 µg/mL was 0%. In addition, the inhibition at 0.063 µg/mL in the series with mouse T lymphocytes (Mus musculus, T-lymphocyte, 48 h, Table 1, L-686,292 only, 63 ng/ml, harvest at 48 hours) is 0%. The inhibition at 0.125 µg/mL in the series on mouse T lymphocytes (Mus musculus, T-lymphocyte, 48 h, Table 1, L-686,292 only, 125 ng/ml, harvest at 48 hours) came to 0%. Also, the inhibition at 0.25 µg/mL in the series with mouse T lymphocytes (Mus musculus, T-lymphocyte, 48 h, Table 1, L-686,292 only, 250 ng/ml, harvest at 48 hours) was 0%. The inhibition at 0.5 µg/mL in the series with mouse T lymphocytes (Mus musculus, T-lymphocyte, 48 h, Table 1, L-686,292 only, 500 ng/ml, harvest at 48 hours) is 0%. Moreover, the inhibition at 1 µg/mL with mouse T lymphocytes (Mus musculus, T-lymphocyte, 48 h, Table 1, L-686,292 only, 1000 ng/ml, harvest at 48 hours) amounted to 0%. For the same compound, the inhibition at 0.001 µg/mL was 99% with mouse T lymphocytes (Mus musculus, T-lymphocyte, Table 1, L-686,292 31 ng/ml & L-679,934 (1 ng/ml), read-out: % Inhibition); 99% in the series with mouse T lymphocytes (Mus musculus, T-lymphocyte, Table 1, L-686,292 63 ng/ml & L-679,934 (1 ng/ml), read-out: % Inhibition); 96% in the series on mouse T lymphocytes (Mus musculus, T-lymphocyte, Table 1, L-686,292 125 ng/ml & L-679,934 (1 ng/ml), read-out: % Inhibition); 65% in the series on mouse T lymphocytes (Mus musculus, T-lymphocyte, Table 1, L-686,292 250 ng/ml & L-679,934 (1 ng/ml), read-out: % Inhibition); 3% in the series on mouse T lymphocytes (Mus musculus, T-lymphocyte, Table 1, L-686,292 500 ng/ml & L-679,934 (1 ng/ml), read-out: % Inhibition); 0% in the series with mouse T lymphocytes (Mus musculus, T-lymphocyte, Table 1, L-686,292 1000 ng/ml & L-679,934 (1 ng/ml), read-out: % Inhibition). Further, the inhibition at 0.001 µg/mL in the series on mouse T lymphocytes (Mus musculus, T-lymphocyte, Table 2, L-686,292 31.3 ng/ml + inhibitor L-679,934 (1 ng/ml), read-out: % Inhibition) was determined as 93.4%; in the series with mouse T lymphocytes (Mus musculus, T-lymphocyte, Table 2, L-686,292 62.5 ng/ml + inhibitor L-679,934 (1 ng/ml), read-out: % Inhibition) it was 65.7%; with mouse T lymphocytes (Mus musculus, T-lymphocyte, Table 2, L-686,292 125 ng/ml + inhibitor L-679,934 (1 ng/ml), read-out: % Inhibition), 0%; in the series on mouse T lymphocytes (Mus musculus, T-lymphocyte, Table 2, L-686,292 1000 ng/ml + inhibitor L-679,934 (1 ng/ml), read-out: % Inhibition), 4.7%. Besides, the IC50 in the series with mouse T lymphocytes (Mus musculus, T-lymphocyte, reversal of inhibition by L-679,934 (1 ng/ml), read-out: IC₅₀ of reversal) is 0.25 µg/mL and 328 nM; with mouse T lymphocytes (Mus musculus, T-lymphocyte, reversal of inhibition by L-679,934, 'generally in the range', read-out: IC₅₀ of reversal, general range), 0.1 to 0.4 µM. The “L-679,934 antagonist activity” value with mouse T lymphocytes (qualitative statement) is recorded as “exhibits reversal of L-679,934 mediated inhibition of T-cell activation”. Besides, the Solubility entry in series [1] is “Solubility in methanol”.

Values taken from patent EP0403242A1, “New L-683,590 microbial transformation product” (Merck & Co., Inc., priority 1989, dated 1990).
